{"source": "the supplement of paper PMC10307832", "test_in_all_cases": "relative viability (nuclei count vs DMSO), 5 days (fraction); higher = more cells survive", "key": {"Dactolisib + Olaparib": {"compound": "Cn1c(=O)n(-c2ccc(C(C)(C)C#N)cc2)c2c3cc(-c4cnc5ccccc5c4)ccc3ncc21 [Dactolisib] + O=C(c1cc(Cc2n[nH]c(=O)c3ccccc23)ccc1F)N1CCN(C(=O)C2CC2)CC1 [Olaparib] (partner 8 µM)", "summary_of_the_method": "(§1)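 Relative viability was taken as the ratio of nuclei in treated wells to nuclei in vehicle wells. Lung cancer cell lines in 1536-well plates received compounds by pin tool one day after seeding, either one drug alone or a fixed anchor-drug dose plus five library-drug doses (not always all listed) in √10 steps. Nuclei were counted on 4× images after 5 days of treatment, and values are medians of duplicate plates.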"}, "AZ505 + Dasatinib": {"compound": "C1CCC(CC1)N(CCNCCC2=C3C(=C(C=C2)O)NC(=O)CO3)C(=O)CCNCCC4=CC(=C(C=C4)Cl)Cl [AZ505] + Cc1nc(Nc2ncc(C(=O)Nc3c(C)cccc3Cl)s2)cc(N2CCN(CCO)CC2)n1 [Dasatinib] (partner 0.075 µM)", "summary_of_the_method": "as §1"}, "Dactolisib + Pictilisib": {"compound": "Cn1c(=O)n(-c2ccc(C(C)(C)C#N)cc2)c2c3cc(-c4cnc5ccccc5c4)ccc3ncc21 [Dactolisib] + CS(=O)(=O)N1CCN(Cc2cc3nc(-c4cccc5[nH]ncc45)nc(N4CCOCC4)c3s2)CC1 [Pictilisib] (partner 1 µM)", "summary_of_the_method": "as §1"}, "AZ505 + Olaparib": {"compound": "C1CCC(CC1)N(CCNCCC2=C3C(=C(C=C2)O)NC(=O)CO3)C(=O)CCNCCC4=CC(=C(C=C4)Cl)Cl [AZ505] + O=C(c1cc(Cc2n[nH]c(=O)c3ccccc23)ccc1F)N1CCN(C(=O)C2CC2)CC1 [Olaparib] (partner 8 µM)", "summary_of_the_method": "as §1"}}}
{"cell line": "UMC-11", "values": [{"measurement": "relative viability", "setting": "Dactolisib + Olaparib; first compound 0.002 µM", "value": 0.36}, {"measurement": "relative viability", "setting": "Dactolisib + Olaparib; first compound 0.006325 µM", "value": 0.317}, {"measurement": "relative viability", "setting": "Dactolisib + Olaparib; first compound 0.02 µM", "value": 0.306}, {"measurement": "relative viability", "setting": "Dactolisib + Olaparib; first compound 0.06325 µM", "value": 0.202}, {"measurement": "relative viability", "setting": "Dactolisib + Olaparib; first compound 0.2 µM", "value": 0.193}, {"measurement": "relative viability", "setting": "AZ505 + Dasatinib; first compound 0.08 µM", "value": 0.444}, {"measurement": "relative viability", "setting": "AZ505 + Dasatinib; first compound 0.253 µM", "value": 0.459}, {"measurement": "relative viability", "setting": "AZ505 + Dasatinib; first compound 0.8 µM", "value": 0.458}, {"measurement": "relative viability", "setting": "AZ505 + Dasatinib; first compound 2.53 µM", "value": 0.472}, {"measurement": "relative viability", "setting": "AZ505 + Dasatinib; first compound 8 µM", "value": 0.658}, {"measurement": "relative viability", "setting": "Dactolisib + Pictilisib; first compound 0.002 µM", "value": 0.753}, {"measurement": "relative viability", "setting": "Dactolisib + Pictilisib; first compound 0.006325 µM", "value": 0.727}, {"measurement": "relative viability", "setting": "Dactolisib + Pictilisib; first compound 0.02 µM", "value": 0.606}, {"measurement": "relative viability", "setting": "Dactolisib + Pictilisib; first compound 0.06325 µM", "value": 0.285}, {"measurement": "relative viability", "setting": "Dactolisib + Pictilisib; first compound 0.2 µM", "value": 0.203}, {"measurement": "relative viability", "setting": "AZ505 + Olaparib; first compound 0.08 µM", "value": 0.366}, {"measurement": "relative viability", "setting": "AZ505 + Olaparib; first compound 0.253 µM", "value": 0.372}, {"measurement": "relative viability", "setting": "AZ505 + Olaparib; first compound 0.8 µM", "value": 0.363}, {"measurement": "relative viability", "setting": "AZ505 + Olaparib; first compound 2.53 µM", "value": 0.383}, {"measurement": "relative viability", "setting": "AZ505 + Olaparib; first compound 8 µM", "value": 0.381}]}
